# Data taken from US12497364B2, “Compound for the determination of the protein FKBP12 and a sensor unit comprising it” (UNIVERSITA DEGLI STUDI DI FIRENZE, priority 2019, dated 2025).
# How the values were obtained:
# FKBP12 [1] = target: T1, FKBP12 (Homo sapiens, UniProt P62942); experiment: QCM microgravimetric measurement of FKBP12 bound to the self-assembled monolayer (SAM), Langmuir fit; assay type: binding; conditions: for Binding of FKBP12 in solution to the SAM (FIG. 5): mass of FKBP12 bound versus FKBP12 concentration in solution
# T1 construct: purchased Interuniversity Magnetic Resonance Consortium of Paramagnetic Metalloproteins, CIRMMP (Florence, Italy); host or cells: Escherichia coli
# T1 sequence (P62942 whole entry): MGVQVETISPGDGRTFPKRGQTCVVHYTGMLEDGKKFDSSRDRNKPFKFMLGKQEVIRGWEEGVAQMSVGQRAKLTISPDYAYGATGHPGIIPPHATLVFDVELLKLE
# Protocol: FKBP12 expressed in Escherichia coli, molecular weight 11900, purity >95% was supplied by the Interuniversity Magnetic Resonance Consortium of Paramagnetic Metalloproteins, CIRMMP (Florence, Italy). The purity of FKBP12 was determined by SDS electrophoresis. K2HPO4 and KH2PO4 for the preparation of the phosphate buffer was obtained from Sigma-Aldrich (Italy). All measurements were made using ultrapure water (resistivity=18 MΩ cm, pH=5.6 at 20° C.) obtained with a Milli-RO equipment coupled with a Milli-Q set up (Millipore, Italy).
# (§1) The concentration of the stock solutions of FKBP12 in PBS buffer (pH 7.4, 0.15 M NaCl) was checked by UV/Vis measurements using ε280=9970 M^−1 cm^−1. The stock solution of FKBP12 was diluted to reach the concentrations used for the calibration straight line.
# (§2) The microgravimetric analyses were carried out with a Quartz-Crystal microbalance (QCM-Z 500 from KSV-Finland). This instrumentation is equipped with a Peltier element for controlling the temperature inside the measurement chamber. All experiments were performed at a temperature of T=20.0±0.1° C.
# The frequency and dissipation data for all recorded harmonics were processed with the QCMBrowse software which directly provides adsorbed mass in nanograms/cm^2, thickness of the monolayer in nanometers and viscoelastic parameters of the system.
# The gold-coated piezoelectric quartz support covered with the SAMs as described above in Example 2, was brought into contact with solutions of increasing concentration of the FKBP12 protein and the concentration of the protein bound to the self-assembled monolayer SAM at saturation was recorded with gravimetric measurements.
# Two different miniaturized versions of an open chamber QCM quartz crystal microbalance (from QCM KSV, Finland and an OpenQCM, Italy modified by the inventors) were also used as a device, allowing the use of small measurement volumes (less than 100 microliters) of the solution to analyse.
# Again with reference to FIG. 5, it can be observed that in all the examined cases there is a saturation trend of the curves, which flatten once the sites available for binding the FKBP protein are exhausted. Considering the structure reached at this concentration as the final equilibrium structure, the relative structural parameters reported in the following Table 2 were calculated.
# The trend shown in FIG. 5 can be rationalized through the Langmuir binding and/or adsorption equation: Δm/A=(Δm/A)sat[C]/[C]+kd
# The application of this model to the data obtained from the microgravimetric measurements allowed to obtain a detailed picture of the interaction mechanism and the energetics involved, in particular we obtained the maximum surface density of FKBP12 (to saturation), the dissociation constant Kd for FKBP12/receptor in the nanosensor and free energy of physi-sorption. The values obtained are shown in Table 3 below, for all the types of SAMs examined.
# FKBP12 [2] = target: T1, FKBP12; experiment: Calibration straight line for FKBP12 on the SAM nanosensor (QCM)
# Protocol: as §1, §2
# From the analysis of the calibration straight lines obtained for the systems examined, the linearity intervals and the experimental limit of detection (LOD) were obtained (wherein LOD means the smallest amount of measurable analyte with acceptable accuracy and precision) for each sensor tested, considering that the maximum sensitivity to the mass in the cell for liquids of the instrumentation used is 0.5 ng/cm^2. This limit may vary depending on the analytical instrumentation adopted for the same SAM used.
# FKBP12 [3] = target: T1, FKBP12; experiment: Duration of operation of the SAM and its reconditioning (QCM); conditions: reconditioning with imidazole or with ethanol
# Protocol: The microgravimetric measurements described above were repeated on freshly prepared SAMs or aged up to 4 months, finding the same results, at least for SAMs stored in closed containers saturated with N2.
# Measurements were also carried out on SAMs already used for a measurement, after reconditioning with imidazole or with ethanol. […] The same result was achieved by leaving in incubation the SAM in solution of the reconditioning solvent.
Structure (SMILES),Binding of FKBP12 in solution to the SAM (FIG. 5) (FKBP12 [1]),"(M/Area)max (Langmuir FIT), maximum surface density of FKBP12 at saturation (FKBP12 [1]; Table 2, SAM on gold-coated quartz crystal) [ng/cm^2]","Kd (FKBP12 [1]; Table 2, SAM on gold-coated quartz crystal, T=20.0 °C, pseudo-Kd for mixed systems) [nM]",(Maa/Area)max (Langmuir FIT) (FKBP12 [1]; Table 3) [ng/cm^2],"Area available for FKBP12 to saturation (FKBP12 [1]; Table 3, experimental data, at saturation) [Å^2]","Linear interval of the response to FKBP12 (FKBP12 [2]; FKBP12 concentration in solution, QCM mass sensitivity 0.5 ng/cm^2) [pM]",Limit of Detection (LOD) (FKBP12 [2]; LOD = 3x (y-intercept standard deviation)/slope of the calibration curve) [pM],QCM frequency before addition of FKBP12 versus after rinsing with the reconditioning solvent (FKBP12 [3])
"CCCCCCCCCCCCS [C12SH, reference compound]",no interaction with the FKBP protein in solution is observed,,,,,,,
"O=C(CCCCCCCCCCS)Oc1ccc(C(=O)C(=O)N2CCCC[C@H]2C(=O)NCCCc2ccccc2)cc1 [GPS-SH1, (S)-4-(2-oxo-2-(2-((3-phenylpropyl)carbamoyl)piperidin-1-yl)acetyl)phenyl 11-mercaptoundecanoate]",binds,123,0.75,123,1910,10 to 800,8.0,identical
